Measurements taken from patent publication US20190330167A1, “ACTIVATORS OF HIV LATENCY” (priority 2016, published 2019).
Where two headings read alike, the source gives them in different places.

System: HIV-1 long terminal repeat (LTR)-driven luciferase reporter gene in FlipIn.FM HEK293 cells
Test: cells
Assay type: cell-based
Conditions: 11-point, 2-fold dilution series, highest concentration 40 μM, read-out: Latent reporter Av EC50
Method: FIG. 44. […] The FlipIn.FM model of HIV-1 latency was treated with JQ1 (+) and DP#14 (Compound 7) alone at 10 μM and in combination, and the HIV-1 gene expression measured 48 hrs post treatment. Error bars represent standard deviation of n=3 experiments. OPTI represents media alone, without DP#14.
FIG. 46. […] The FlipIn.FM model of HIV-1 latency was treated with PFI-1 and DP#14 alone at 10 μM and in combination, and the HIV-1 gene expression measured 48 hrs post treatment. Error bars represent standard deviation of n=3 experiments. OPTI represents media alone, without DP#14.
Explicitly, HEK293 derived FlipIn-FM and FlipIn-RV dual reporter cells each include a single stable HIV-1 long terminal repeat (LTR)-driven luciferase reporter genes, with a second complimentary non-HIV (off-target) luciferase reporter. These cell lines model post integration latency and read-through transcription by expressing a low level of HIV-1 Tat protein via a native Internal Ribosome Entry Site (IRES) found within Tat, from a chimeric cellular-tat gene cassette. FlipIn-FM and FlipIn-RV clones were chosen for low basal levels of LTR activity and high responsiveness to Tat as well as many Latency Reversing Agents (LRAs).
The dual reporter cell lines contain three stably integrated constructs that together allow for detection of novel LRAs, capable of potent and specific HIV reactivation. The FlipIn.FM line contains a proviral LTR-driven nef/CBR reporter fusion gene, allowing for detection of viral gene expression. A second CMV-driven CBG luciferase reporter allows for detection of off target drug effects, including non-specific activation and drug toxicity. The third construct contains the first coding exon of HIV-1 tat, within human Growth Hormone (hGH) as a chimeric gene, expressing HIV-1 Tat protein from an IRES mechanism that underlies the tat exon. This construct models read-through transcription and the low level of Tat protein expression that occurs during post integration latency. The counter screening reverse cell line, FlipIn.RV, contains the same three components with the Click Beetle Luciferase genes in the opposite orientation (LTR-CBG and CMV-CBR) for counter screening.
Compounds were evaluated in an 11-point titration using normal CMV-CBG/LTR-CBR reporter cell line and an 11 point reverse CMV-CBR/LTR-CBG reporter cell line.
The FlipIn cell lines were therefore designed with a dual purpose, to detect novel compounds that reactivate HIV-1 and to also screen out compounds that behaved in a largely non-specific manner. To achieve the latter, the cell lines contain an “off target” reporter gene construct, driven by the unrelated CMV-IE promoter, that allows for the detection of drug mediated off target effects including global gene activation as well as possible toxicity.
The HIV-LTR driven latent reporter gene identifies the HIV-specific activation, and the term “global reporter” is interchangeable with “off target reporter” and refers to the unrelated CMV-IE promoter driven reporter gene, which is used as a surrogate for global gene activation. […] The highest concentration tested here was 40 μM.

[1] = Human immunodeficiency virus 1, HEK293, HIV-LTR driven latent reporter

Cc1cnc(NC(=O)CCCOc2ccc(Cl)c(C)c2)s1 [Compound 1]
EC50 (HIV-LTR driven latent reporter): 4.88 µM

Cc1cnc(NC(=O)CCCCc2ccccc2)s1 [Compound 4]
EC50 [1]: 9.26 µM

N#Cc1cnc(NC(=O)CCCOc2ccccc2)s1 [Compound 5]
EC50 [1]: 3.48 µM

CCc1cnc(NC(=O)CCCOc2ccccc2)s1 [Compound 6]
EC50 [1]: 1.09 µM

O=C(CCCOc1ccccc1)Nc1ncc(Cl)s1 [Compound 8]
EC50 [1]: 1.99 µM

Cc1cnc(NC(=O)CCCOc2ccc(Cl)c(Cl)c2)s1 [Compound 12]
EC50 [1]: 3.22 µM

Cc1cnc(NC(=O)CCCOc2ccc(Br)c(Cl)c2)s1 [Compound 14]
EC50 [1]: 3.09 µM

O=C(CCCOc1ccc(Br)c(Cl)c1)Nc1ncc(Br)s1 [Compound 15]
EC50 [1]: 2.56 µM

O=C(CCCOc1ccc(Cl)c(Cl)c1)Nc1ncc(Br)s1 [Compound 16]
EC50 [1]: 1.23 µM

Cc1cc(OCCCC(=O)Nc2ncc(Br)s2)ccc1Cl [Compound 17]
EC50 [1]: 2.83 µM

O=C(CCCOc1ccc(Br)c(Cl)c1)Nc1ncc(Cl)s1 [Compound 18]
EC50 [1]: 2.83 µM

O=C(CCCOc1ccc(Cl)c(Cl)c1)Nc1ncc(Cl)s1 [Compound 19]
EC50 [1]: 1.48 µM

Cc1cc(OCCCC(=O)Nc2ncc(Cl)s2)ccc1Cl [Compound 20]
EC50 [1]: 1.85 µM

N#Cc1cnc(NC(=O)CCCOc2ccc(Br)c(Cl)c2)s1 [Compound 21]
EC50 [1]: 2.12 µM

CCc1cnc(NC(=O)CCCOc2ccc(Br)c(Cl)c2)s1 [Compound 22]
EC50 [1]: 2.01 µM

O=C(CCCOc1ccccc1)Nc1ccc(Br)cn1 [Compound 29]
EC50 [1]: 7.6 µM

O=C(CCCOc1ccccc1)Nc1ccc(C(F)(F)F)cn1 [Compound 30]
EC50 [1]: 9.74 µM

Cc1cnc(NC(=O)CCCOc2ccc(Cl)c(C)c2)s1 [Compound 36]
EC50 [1]: 4.2 µM

Cc1cnc(NC(=O)CCCOc2ccc(Cl)c(C(F)(F)F)c2)s1 [Compound 38]
EC50 [1]: 5.07 µM

O=C(CCCOc1ccccc1)Nc1ccc(Cl)cn1 [Compound 40]
EC50 [1]: 6.86 µM

COc1ccccc1OCCCC(=O)Nc1ncc(C)s1 [Compound 42]
EC50 [1]: 1.42 µM

Cc1cnc(NC(=O)CCCOc2cccc(O)c2)s1 [Compound 43]
EC50 [1]: 12.5 µM

COc1cccc(OCCCC(=O)Nc2ncc(C)s2)c1 [Compound 44]
EC50 [1]: 5.3 µM

Cc1cnc(NC(=O)CCCOc2cccc([N+](=O)[O-])c2)s1 [Compound 45]
EC50 [1]: 5.29 µM

Cc1cnc(NC(=O)CCCOc2cccc(Cl)c2)s1 [Compound 46]
EC50 [1]: 5.23 µM

Cc1cnc(NC(=O)CCCOc2cccc(C(F)(F)F)c2)s1 [Compound 47]
EC50 [1]: 6.55 µM

Cc1cnc(NC(=O)CCCOc2cccc(CO)c2)s1 [Compound 48]
EC50 [1]: 4.13 µM

Cc1cnc(NC(=O)CCCOc2cccc(C=O)c2)s1 [Compound 49]
EC50 [1]: 2.64 µM

O=C(CCCOc1ccccc1)Nc1ncc(C(F)(F)F)s1 [Compound 51]
EC50 [1]: 2.37 µM

CC(C)c1cnc(NC(=O)CCCOc2ccccc2)s1 [Compound 52]
EC50 [1]: 3.8 µM

Cc1cc(OCCCC(=O)Nc2ccc(Cl)cn2)ccc1Cl [Compound 54]
EC50 [1]: 19.4 µM

COc1ccc(NC(=O)CCCOc2ccc(Cl)c(C)c2)nc1 [Compound 55]
EC50 [1]: 17.9 µM

Cc1cnc(NC(=O)CCCN(C)c2ccccc2)s1 [Compound 56]
EC50 [1]: 14.8 µM

Cc1cnc(NC(=O)CCCNc2ccc(Cl)c(C)c2)s1 [Compound 57]
EC50 [1]: 1.7 µM

Cc1cnc(NC(=O)CCCNc2ccc(Cl)c(C(F)(F)F)c2)s1 [Compound 58]
EC50 [1]: 2 µM

Cc1cnc(NC(=O)CCCN(C)c2ccc(Cl)c(C)c2)s1 [Compound 59]
EC50 [1]: 1.11 µM

Cc1ccc(OCCCC(=O)Nc2ncc(Cl)s2)cc1Cl [Compound 60]
EC50 [1]: 3.56 µM

Cc1cc(OCCCC(=O)Cc2ncc(C(C)C)s2)ccc1Cl [Compound 61]
EC50 [1]: 4.29 µM

Cc1cc(OCCCC(=O)Nc2ncc(C(F)(F)F)s2)ccc1Cl [Compound 62]
EC50 [1]: 4.74 µM

Cc1cnc(NC(=O)N2CCN(c3ccc(C)c(Cl)c3)CC2)s1 [Compound 63]
EC50 [1]: 0.45 µM

Cc1cnc(NC(=O)N2CCN(c3ccc(Cl)c(Cl)c3)CC2)s1 [Compound 66]
EC50 [1]: 0.58 µM

O=C(Nc1ncc(Cl)s1)N1CCN(c2ccc(Cl)c(Cl)c2)CC1 [Compound 67]
EC50 [1]: 0.27 µM

N#Cc1cnc(NC(=O)N2CCN(c3ccc(Cl)c(Cl)c3)CC2)s1 [Compound 68]
EC50 [1]: 0.52 µM

Cc1cnc(NC(=O)N2CCN(c3ccc(Cl)c(C)c3)CC2)s1 [Compound 69]
EC50 [1]: 0.34 µM

Cc1cc(N2CCN(C(=O)Nc3ncc(Cl)s3)CC2)ccc1Cl [Compound 70]
EC50 [1]: 0.21 µM

Cc1cc(N2CCN(C(=O)Nc3ncc(C#N)s3)CC2)ccc1Cl [Compound 71]
EC50 [1]: 0.88 µM

Cc1cc(N2CCN(C(=O)Nc3ncc(Cl)s3)CC2)ncc1C#N [Compound 72]
EC50 [1]: 0.25 µM

Cc1ccc(N2CCCN(C(=O)Nc3ncc(Cl)s3)CC2)cc1Cl [Compound 74]
EC50 [1]: 5.2 µM

O=C(Nc1ncc(Cl)s1)N1CCCN(c2ccc(Cl)c(Cl)c2)CC1 [Compound 75]
EC50 [1]: 5.46 µM

Cc1cnc2[nH]c(CCCOc3ccc(C)c(Cl)c3)nc2c1 [Compound 76]
EC50 [1]: 7.75 µM

Cc1ccc(OCCCc2nc3cc(Br)cnc3[nH]2)cc1Cl [Compound 77]
EC50 [1]: 3.97 µM

Cc1ccc(N2CCC(C(=O)Nc3ncc(Cl)s3)CC2)cc1Cl [Compound 78]
EC50 [1]: 11.4 µM

Cc1ccc(N2CCC(C(=O)Nc3ncc(C#N)s3)CC2)cc1Cl [Compound 79]
EC50 [1]: 3.83 µM

Cc1cnc(NC(=O)N2CCC(Nc3ccc(Cl)c(C)c3)C2)s1 (centres unmarked) [Compound 80]
EC50 [1]: 10.1 µM

Cc1cc(NC2CCN(C(=O)Nc3ncc(Cl)s3)C2)ccc1Cl (centres unmarked) [Compound 81]
EC50 [1]: 1.5 µM

Cc1cc(OCCC(=O)Nc2ncc(Cl)s2)ccc1Cl [Compound 83]
EC50 [1]: 2.2 µM
